# Reference: US8048916B2, “Ester compound and use thereof” (Sumitomo Chemical Company, Limited, priority 2007, dated 2011)
# Test system: houseflies
# Assay: Test Example 2: knock-down test on houseflies in a 70 cm cubic chamber (KT50)
# Assay type: in vivo, housefly
# Conditions: 0.00625% (w/v), 0.7 ml sprayed into 70 cm cubic chamber, knock-down counted until 10 minutes
# Description: Each of the compositions of the compounds (1) and (2) of the present invention obtained by Formulation Example 7 was diluted with mixed liquid of dichloromethane/deodorized kerosine=1/9 (w/w) so that the effective ingredient concentration became 0.00625% (w/v) to prepare a test solution.
# Ten houseflies were released in a cubic chamber having a side of 70 cm to spray 0.7 ml of the above-mentioned oil-based preparation into the chamber through a small window on the side face of the chamber at a spray pressure of 0.9 kg/cm^2 with a spray gun. Then, the number of houseflies knocked down was counted with time until 10 minutes later (two repetitions each). The effect was evaluated with 4 grades of ⊙ to × as described below by means of a KT50 value calculated from the obtained results.
# As a control test, the similar tests were performed by using as comparative reference compounds 2,3,5,6-tetrafluoro-4-methoxymethylbenzyl (1R,3S)-3-((E)-2-cyano-2-fluorovinyl)-2,2-dimethylcyclopropanecarboxylate
row,SMILES,Efficacy (grade by KT50 value)
1,"COCc1c(F)c(F)c(COC(=O)[C@@H]2C(/C=C(\Cl)C#N)C2(C)C)c(F)c1F (stereo in doubt) [compound (1), 2,3,5,6-tetrafluoro-4-methoxymethylbenzyl (1R,3S)-3-((Z)-2-chloro-2-cyanovinyl)-2,2-dimethylcyclopropanecarboxylate]",◯ (KT50 value is 2 minutes or more and less than 3 minutes)
2,"COCc1c(F)c(F)c(COC(=O)[C@@H]2C(/C=C(/Cl)C#N)C2(C)C)c(F)c1F (stereo in doubt) [compound (2), 2,3,5,6-tetrafluoro-4-methoxymethylbenzyl (1R,3S)-3-((E)-2-chloro-2-cyanovinyl)-2,2-dimethylcyclopropanecarboxylate]",⊙ (KT50 value is less than 2 minutes)
3,"COCc1c(F)c(F)c(COC(=O)[C@@H]2C(C=C(F)C#N)C2(C)C)c(F)c1F (stereo in doubt) [control compound (A), 2,3,5,6-tetrafluoro-4-methoxymethylbenzyl (1R,3S)-3-((E)-2-cyano-2-fluorovinyl)-2,2-dimethylcyclopropanecarboxylate]",X (KT50 value is 4 minutes or more)
4,"COCc1c(F)c(F)c(COC(=O)[C@@H]2C(C=C(F)C#N)C2(C)C)c(F)c1F (stereo in doubt) [control compound (B), 2,3,5,6-tetrafluoro-4-methoxymethylbenzyl (1R,3S)-3-((Z)-2-cyano-2-fluorovinyl)-2,2-dimethylcyclopropanecarboxylate]",Δ (KT50 value is 3 minutes or more and less than 4 minutes)
